pIC50: −log10 of the molar value. Like-named read-outs stand apart in the source and are kept apart here.
Key:
[1] = target: vascular angiotensin II receptors; experiment: Radioligand binding assay, displacement of 125I-angiotensin II; conditions: particular fraction from rat mesenteric arteries, 80 pM 125I-angiotensin II, 1 hour at 25°C
Description: (§1) Angiotensin II antagonist activity of the compounds of Formula (I) is assessed by in vitro and in vivo methods. In vitro antagonist activity is determined by the ability of the compounds to compete with ^125I-angiotensin II for binding to vascular angiotensin II receptors and by their ability to antagonize the contractile response to angiotensin II in the isolated rabbit aorta. In vivo activity is evaluated by the efficacy of the compounds to inhibit the pressor response to exogenous angiotensin II in conscious rats and to lower blood pressure in a rat model of renin dependent hypertension.
The radioligand binding assay is a modification of a method previously described in detail (Gunther et al., Circ. Res. 47:278, 1980). A particular fraction from rat mesenteric arteries is incubated in Tris buffer with 80 pM of ^125I-angiotensin II with or without angiotensin II antagonists for 1 hour at 25°C. The incubation is terminated by rapid filtration and receptor bound ^125I-angiotensin II trapped on the filter is quantitated with a gamma counter. The potency of angiotensin II antagonists is expressed as the IC50 which is the concentration of antagonist needed to displace 50% of the total specifically bound angiotensin II. The IC50 of (E)-3-[2-n-butyl-1-{(4-carboxyphenyl)methyl}-1H-imidazol-5-yl]-2-(2-thienyl)methyl-2-propenoic acid is about 1.0 nM.

[2] = system: pressor response to exogenous angiotensin II; experiment: Inhibition of pressor response to angiotensin II in conscious rats; type: in vivo; conditions: Rattus norvegicus, intravenous injections of 250 mg/kg angiotensin II, read-out: IC50 (dose needed to produce 50% inhibition of the control response to angiotensin II)
Description: as §1
Rats are prepared with indwelling femoral arterial and venous catheters and a stomach tube (Gellai et al., Kidney Int. 15:419, 1979). Two to three days following surgery the rats are placed in a restrainer and blood pressure is continuously monitored from the arterial catheter with a pressure transducer and recorded on a polygraph. The change in mean arterial pressure in response to intravenous injections of […] angiotensin II is compared at various time points prior to and following the administration of the compounds intravenously or orally at doses of 0.1 to 300 mg/kg. The dose of compound needed to produce 50% inhibition of the control response to angiotensin II (IC50) is used to estimate the potency of the compounds.

mean arterial pressure = experiment: Antihypertensive activity in renal artery ligated, renin-dependent hypertensive conscious rats; type: in vivo; conditions: Rattus norvegicus, po, 192 h, orally, seven to eight days following ligation, read-out: IC30 (dose needed to reduce mean arterial pressure by 30 mmHg)
Description: as §1
The antihypertensive activity of the compounds is measured by their ability to reduce mean arterial pressure in conscious rats made renin-dependent hypertensive by ligation of the left renal artery (Cangiano et al;., J. Pharmacol. Exp. Ther. 208:310, 1979). Renal artery ligated rats are prepared with indwelling catheters as described above. Seven to eight days following renal artery ligation, the time at which plasma renin levels are highest, the conscious rats are placed in restrainers and mean arterial pressure is continuously recorded prior to and following the administration of the compounds intravenously or orally. The dose of compound needed to reduce mean arterial pressure by 30 mmHg (IC30) is used as an estimate of potency. […]

pIC50 [1]: ~9.00
Structure (SMILES): CCCCc1ncc(/C=C(\Cc2cccs2)C(=O)O)n1Cc1ccc(C(=O)O)cc1 [(E)-3-[2-n-butyl-1-{(4-carboxyphenyl)methyl}-1H-imidazol-5-yl]-2-(2-thienyl)methyl-2-propenoic acid]
ED50 ([2]; i.v.): ~0.1 mg/kg
ED50 ([2]; po, orally): ~5.5 mg/kg
ED (30 mmHg) (mean arterial pressure): ~10 mg/kg
